Measured values as given in US8796289B2 (AbbVie Inc., priority 2011, dated 2014).
pKi: −log10 of the molar value.

Target: GST-tagged-Wee1 kinase (Homo sapiens, UniProt P30291)
Assay: Wee1 time-resolved fluorescence equilibrium binding assay (displacement of Oregon Green-labeled ATP-competitive kinase probe)
Settings: not given
Description: Wee1 kinase was assayed using a time-resolved fluorescence equilibrium binding assay monitoring displacement of a rapidly reversible Oregon Green-labeled ATP-competitive kinase probe (N-(2-(2-(2-(4-(4-(5-chloro-4-(2-(1-hydroxycyclobutyl)thiazol-5-yl)-1H-pyrrolo[2,3-b]pyridin-2-yl)phenyl)piperazin-1-yl)ethoxy)ethoxy)ethyl)-2′,7′-difluoro-3′,6′-dihydroxy-3-oxo-3H-spiro[isobenzofuran-1,9′-xanthene]-5-carboxamide) by competitive Wee1 inhibitors.

GST-tagged-Wee1 kinase, sequence (P30291 whole entry): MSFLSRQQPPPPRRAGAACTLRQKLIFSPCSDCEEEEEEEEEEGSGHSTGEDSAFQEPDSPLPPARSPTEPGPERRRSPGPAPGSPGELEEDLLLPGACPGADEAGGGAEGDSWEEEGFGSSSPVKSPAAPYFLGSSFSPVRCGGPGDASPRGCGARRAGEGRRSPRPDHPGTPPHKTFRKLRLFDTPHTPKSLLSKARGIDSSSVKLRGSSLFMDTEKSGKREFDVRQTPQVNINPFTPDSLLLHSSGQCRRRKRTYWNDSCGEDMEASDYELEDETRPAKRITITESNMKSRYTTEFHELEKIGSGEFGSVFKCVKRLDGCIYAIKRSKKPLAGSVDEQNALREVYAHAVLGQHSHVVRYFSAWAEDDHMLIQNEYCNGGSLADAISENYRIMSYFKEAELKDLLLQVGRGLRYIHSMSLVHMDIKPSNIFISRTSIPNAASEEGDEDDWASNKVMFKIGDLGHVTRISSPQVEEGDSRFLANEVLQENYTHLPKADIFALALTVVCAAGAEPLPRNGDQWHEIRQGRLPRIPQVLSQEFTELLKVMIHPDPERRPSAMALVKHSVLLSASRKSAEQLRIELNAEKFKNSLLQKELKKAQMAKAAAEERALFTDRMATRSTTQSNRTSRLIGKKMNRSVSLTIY

First: CN1Cc2cc(Nc3ncc4c(=O)n(-c5c(Cl)cccc5Cl)nc(C5CC5)c4n3)ccc2C2(CC2)C1 [Example 389, 8-cyclopropyl-6-(2,6-dichlorophenyl)-2-[(2′-methyl-2′,3′-dihydro-1′H-spiro[cyclopropane-1,4′-isoquinolin]-7′-yl)amino]pyrimido[4,5-d]pyridazin-5(6H)-one]
Second: CN1Cc2cc(Nc3ncc4c(=O)n(-c5c(Cl)cccc5Cl)nc(C5CCC5)c4n3)ccc2C2(CC2)C1 [Example 280, 8-cyclobutyl-6-(2,6-dichlorophenyl)-2-[(2′-methyl-2′,3′-dihydro-1′H-spiro[cyclopropane-1,4′-isoquinolin]-7′-yl)amino]pyrimido[4,5-d]pyridazin-5(6H)-one]
The pKi of the first is 0.26 log units higher: 9.55 for the first, 9.29 for the second.

Going from C=CCn1nc(-c2ccc(Cl)cc2Cl)c2nc(Nc3ccc(N4CCN(C)CC4)cc3)ncc2c1=O [Example 47, 6-allyl-8-(2,4-dichlorophenyl)-2-{[4-(4-methylpiperazin-1-yl)phenyl]amino}pyrimido[4,5-d]pyridazin-5(6H)-one] to Cc1ccccc1-c1nn(-c2c(Cl)cccc2Cl)c(=O)c2cnc(Nc3ccc(N4CCN(C)CC4)cc3)nc12 [Example 71, 6-(2,6-dichlorophenyl)-8-(2-methylphenyl)-2-{[4-(4-methylpiperazin-1-yl)phenyl]amino}pyrimido[4,5-d]pyridazin-5(6H)-one], the pKi rises from 6.62 to 9.70 (3.08 log units).

CN1CCN(c2ccc(Nc3ncc4c(=O)n(-c5ncccc5Cl)nc(-c5ccncc5)c4n3)cc2)CC1 [Example 336, 6-(3-chloropyridin-2-yl)-2-{[4-(4-methylpiperazin-1-yl)phenyl]amino}-8-(pyridin-4-yl)pyrimido[4,5-d]pyridazin-5(6H)-one] and CN1CCN(c2ccc(Nc3ncc4c(=O)n(-c5c(Cl)cccc5Cl)nc(-c5cnccn5)c4n3)cc2)CC1 [Example 271, 6-(2,6-dichlorophenyl)-2-{[4-(4-methylpiperazin-1-yl)phenyl]amino}-8-(pyrazin-2-yl)pyrimido[4,5-d]pyridazin-5(6H)-one] are within 0.2 log units of each other in pKi: 9.31 for the first, 9.40 for the second.

Cc1nn(-c2c(Cl)cccc2Cl)c(=O)c2cnc(Nc3cccc(N4CCN(CCCN(C)C)CC4)c3)nc12 [Example 515, 6-(2,6-dichlorophenyl)-2-[(3-{4-[3-(dimethylamino)propyl]piperazin-1-yl}phenyl)amino]-8-methylpyrimido[4,5-d]pyridazin-5(6H)-one] and Cc1nn(-c2c(Cl)cccc2Cl)c(=O)c2cnc(Nc3ccc(N4CCN(CCCN(C)C)CC4)cc3)nc12 [Example 517, 6-(2,6-dichlorophenyl)-2-[(4-{4-[3-(dimethylamino)propyl]piperazin-1-yl}phenyl)amino]-8-methylpyrimido[4,5-d]pyridazin-5(6H)-one] are within 0.2 log units of each other in pKi: 9.72 for the first, 9.62 for the second.

O=c1c2cnc(Nc3ccc4c(c3)CNCC4)nc2c(-c2cncs2)nn1-c1c(Cl)cccc1Cl [Example 318, 6-(2,6-dichlorophenyl)-2-(1,2,3,4-tetrahydroisoquinolin-7-ylamino)-8-(1,3-thiazol-5-yl)pyrimido[4,5-d]pyridazin-5(6H)-one] and CC1(C)CNCc2cc(Nc3ncc4c(=O)n(-c5c(Cl)cccc5Cl)nc(-c5ccccn5)c4n3)ccc21 [Example 263, 6-(2,6-dichlorophenyl)-2-[(4,4-dimethyl-1,2,3,4-tetrahydroisoquinolin-7-yl)amino]-8-(pyridin-2-yl)pyrimido[4,5-d]pyridazin-5(6H)-one] are within 0.2 log units of each other in pKi: 9.59 for the first, 9.52 for the second.

Compared with CN1CCN(c2ccc(Nc3ncc4c(=O)n(-c5ccccc5Cl)nc(C5CCCC5)c4n3)cc2)CC1 [Example 55, 6-(2-chlorophenyl)-8-cyclopentyl-2-{[4-(4-methylpiperazin-1-yl)phenyl]amino}pyrimido[4,5-d]pyridazin-5(6H)-one], CN1CCN(c2ccc(Nc3ncc4c(=O)n(-c5c(Cl)cccc5Cl)nc(C5CCCC5)c4n3)cc2)CC1 [Example 74, 8-cyclopentyl-6-(2,6-dichlorophenyl)-2-{[4-(4-methylpiperazin-1-yl)phenyl]amino}pyrimido[4,5-d]pyridazin-5(6H)-one] is 0.30 log units higher in pKi: 8.70 for the first, 9.00 for the second.

Compared with Cc1nn(-c2ncccc2Cl)c(=O)c2cnc(Nc3ccc4c(c3)CNCC4)nc12 [Example 400, 6-(3-chloropyridin-2-yl)-8-methyl-2-(1,2,3,4-tetrahydroisoquinolin-7-ylamino)pyrimido[4,5-d]pyridazin-5(6H)-one], O=c1c2cnc(Nc3ccc4c(c3)CNCC43CC3)nc2c(C2CCC2)nn1-c1c(Cl)cccc1Cl [Example 281, 8-cyclobutyl-6-(2,6-dichlorophenyl)-2-(2′,3′-dihydro-1′H-spiro[cyclopropane-1,4′-isoquinolin]-7′-ylamino)pyrimido[4,5-d]pyridazin-5(6H)-one] is 1.11 log units higher in pKi: 8.17 for the first, 9.28 for the second.

Going from Cc1ccccc1-n1nc(-c2cccs2)c2nc(Nc3ccc(S(=O)(=O)N4CCOCC4)cc3)ncc2c1=O [Example 129, 6-(2-methylphenyl)-2-{[4-(morpholin-4-ylsulfonyl)phenyl]amino}-8-(2-thienyl)pyrimido[4,5-d]pyridazin-5(6H)-one] to Cc1cc(Nc2ncc3c(=O)n(-c4ccccc4C)nc(-c4cccs4)c3n2)ccc1N1CCN(C(C)C)CC1 [Example 119, 2-{[4-(4-isopropylpiperazin-1-yl)-3-methylphenyl]amino}-6-(2-methylphenyl)-8-(2-thienyl)pyrimido[4,5-d]pyridazin-5(6H)-one], the pKi rises from < 5.50 to 9.00.

First: CCc1nn(-c2c(Cl)cccc2Cl)c(=O)c2cnc(Nc3ccc(N4CCN(C(C)=O)CC4)cc3)nc12 [Example 414, 2-{[4-(4-acetylpiperazin-1-yl)phenyl]amino}-6-(2,6-dichlorophenyl)-8-ethylpyrimido[4,5-d]pyridazin-5(6H)-one]
Second: CN1CCN(c2ccc(Nc3ncc4c(=O)n(-c5c(Cl)cccc5Cl)nc(-c5nccs5)c4n3)cc2)CC1 [Example 316, 6-(2,6-dichlorophenyl)-2-{[4-(4-methylpiperazin-1-yl)phenyl]amino}-8-(1,3-thiazol-2-yl)pyrimido[4,5-d]pyridazin-5(6H)-one]
The pKi of the first is 0.38 log units higher: 9.12 for the first, 8.74 for the second. The first binds more tightly here.

First: CN1CCC(n2nc(-c3ccccn3)c3nc(Nc4ccc(N5CCNCC5)cc4)ncc3c2=O)CC1 [Example 322, 6-(1-methylpiperidin-4-yl)-2-{[4-(piperazin-1-yl)phenyl]amino}-8-(pyridin-2-yl)pyrimido[4,5-d]pyridazin-5(6H)-one]
Second: CN1CCN(c2ccc(Nc3ncc4c(=O)n(-c5ccccc5)nc(-c5cccc(Br)c5)c4n3)cc2)CC1 [Example 67, 8-(3-bromophenyl)-2-{[4-(4-methylpiperazin-1-yl)phenyl]amino}-6-phenylpyrimido[4,5-d]pyridazin-5(6H)-one]
The pKi of the first is lower: < 5.50 for the first, 7.85 for the second.

First: COc1cccc(-c2nn(-c3ccccc3)c(=O)c3cnc(Nc4ccc(N5CCN(C)CC5)cc4)nc23)c1 [Example 58, 8-(3-methoxyphenyl)-2-{[4-(4-methylpiperazin-1-yl)phenyl]amino}-6-phenylpyrimido[4,5-d]pyridazin-5(6H)-one]
Second: CN1CCN(c2ccc(Nc3ncc4c(=O)n(-c5c(Cl)cccc5Cl)nc(-c5cccc(-c6ccc[nH]6)c5)c4n3)cc2)CC1 [Example 92, 6-(2,6-dichlorophenyl)-2-{[4-(4-methylpiperazin-1-yl)phenyl]amino}-8-[3-(1H-pyrrol-2-yl)phenyl]pyrimido[4,5-d]pyridazin-5(6H)-one]
The pKi of the first is 0.60 log units higher: 8.70 for the first, 8.10 for the second.

COCn1ccc(-c2nn(-c3c(Cl)cccc3Cl)c(=O)c3cnc(Nc4ccc(N5CCN(C)CC5)cc4)nc23)n1 [Example 268, 6-(2,6-dichlorophenyl)-8-[1-(methoxymethyl)-1H-pyrazol-3-yl]-2-{[4-(4-methylpiperazin-1-yl)phenyl]amino}pyrimido[4,5-d]pyridazin-5(6H)-one] and CN1CCN(c2ccc(Nc3ncc4c(=O)n(-c5c(Cl)cccc5Cl)nc(-c5cccs5)c4n3)cc2)CC1 [Example 70, 6-(2,6-dichlorophenyl)-2-{[4-(4-methylpiperazin-1-yl)phenyl]amino}-8-(2-thienyl)pyrimido[4,5-d]pyridazin-5(6H)-one] are the same in pKi: 10.00 for the first, 10.00 for the second.

Compared with CN1Cc2cc(Nc3ncc4c(=O)n(-c5ccccc5Cl)nc(-c5cccs5)c4n3)ccc2C2(CC2)C1 [Example 123, 6-(2-chlorophenyl)-2-[(2′-methyl-2′,3′-dihydro-1′H-spiro[cyclopropane-1,4′-isoquinolin]-7′-yl)amino]-8-(2-thienyl)pyrimido[4,5-d]pyridazin-5(6H)-one], CN1Cc2cc(Nc3ncc4c(=O)n(-c5c(Cl)cccc5Cl)nc(-c5nccs5)c4n3)ccc2C2(CC2)C1 [Example 320, 6-(2,6-dichlorophenyl)-2-[(2′-methyl-2′,3′-dihydro-1′H-spiro[cyclopropane-1,4′-isoquinolin]-7′-yl)amino]-8-(1,3-thiazol-2-yl)pyrimido[4,5-d]pyridazin-5(6H)-one] is 0.61 log units higher in pKi: 8.70 for the first, 9.31 for the second.

Going from CN(C)C1Cc2ccc(Nc3ncc4c(=O)n(-c5c(Cl)cccc5Cl)nc(C(F)F)c4n3)cc2C1 (stereo not drawn) [Example 408, 6-(2,6-dichlorophenyl)-8-(difluoromethyl)-2-{[2-(dimethylamino)-2,3-dihydro-1H-inden-5-yl]amino}pyrimido[4,5-d]pyridazin-5(6H)-one] to CC(=O)N1CCc2cc(Nc3ncc4c(=O)n(-c5c(Cl)cccc5Cl)nc(C(F)F)c4n3)ccc2C1 [Example 476, 2-[(2-acetyl-1,2,3,4-tetrahydroisoquinolin-6-yl)amino]-6-(2,6-dichlorophenyl)-8-(difluoromethyl)pyrimido[4,5-d]pyridazin-5(6H)-one], the pKi rises from 9.39 to 9.77 (0.38 log units).

For CC(C)n1nc(-c2ccncc2)c2nc(Nc3ccc4c(c3)CN(C)CC43CC3)ncc2c1=O [Example 275, 2-[(2′-methyl-2′,3′-dihydro-1′H-spiro[cyclopropane-1,4′-isoquinolin]-7′-yl)amino]-6-(propan-2-yl)-8-(pyridin-4-yl)pyrimido[4,5-d]pyridazin-5(6H)-one], the pKi was 8.49.

Same assay, conditions: read-out: Wee-1 inhibition Ki

Work on “8-(6-chloropyridin-2-yl)-6-(2,6-dichlorophenyl)-2-{[4-(4-methylpiperazin-1-yl)phenyl]amino}pyrimido[4,5-d]pyridazin-5(6H)-one [Example 75]” yielded a pKi of 10.10.
